Experimental data published in ChEMBL document CHEMBL1150336, “Synthesis and antibacterial activity of novel pyrido[1,2,3-de][1,4]benzoxazine-6-carboxylic acid derivatives carrying the 3-cyclopropylaminomethyl-4-substituted-1-pyrrolidinyl group as a C-10 substituent” (J Med Chem, 2008).
Values after ≈ are worked out from the molar mass of the structure shown.

What was measured:
Staphylococcus aureus [1] = test: Antibacterial activity against Staphylococcus aureus Smith after 18 hrs by agar dilution method; assay type: functional
Enterococcus faecalis [2] = test: Antibacterial activity against quinoline-resistant Enterococcus faecalis No.15 isolate after 18 hrs by agar dilution method; assay type: functional
Escherichia coli = test: Antibacterial activity against Escherichia coli NIHJ JC2 after 18 hrs by agar dilution method; assay type: functional; settings: NIHJ JC2, 18 h
Pseudomonas aeruginosa = test: Antibacterial activity against Pseudomonas aeruginosa IID1210 after 18 hrs by agar dilution method; assay type: functional
Enterococcus faecalis [3] = test: Antibacterial activity against vancomycin-resistant Enterococcus faecalis KU1856 after 18 hrs by agar dilution method; assay type: functional
Staphylococcus aureus [4] = test: Antibacterial activity against quinoline-resistant Staphylococcus aureus OITI MR1-1002 isolate after 18 hrs by agar dilution method; assay type: functional
Haemophilus influenzae = test: Antibacterial activity against Haemophilus influenzae IID983 after 18 hrs by agar dilution method; assay type: functional
Enterococcus faecalis [5] = test: Antibacterial activity against vancomycin-resistant Enterococcus faecalis KU1866 after 18 hrs by agar dilution method; assay type: functional
Streptococcus pneumoniae [6] = test: Antibacterial activity against quinoline-resistant Streptococcus pneumoniae no.55 isolate after 18 hrs by agar dilution method; assay type: functional
Enterococcus faecalis [7] = test: Antibacterial activity against Enterococcus faecalis IID682 after 18 hrs by agar dilution method; assay type: functional
Klebsiella pneumoniae = test: Antibacterial activity against Klebsiella pneumoniae IID5209 after 18 hrs by agar dilution method; assay type: functional
Streptococcus pyogenes = test: Antibacterial activity against Streptococcus pyogenes IID692 after 18 hrs by agar dilution method; assay type: functional
Streptococcus pneumoniae [8] = test: Antibacterial activity against Streptococcus pneumoniae type 3 after 18 hrs by agar dilution method; assay type: functional
Mus musculus [9] = test: Toxicity in ICR mouse assessed as mortality administered as single dose at 100 mg/kg, iv after 7 days; assay type: organism-based; parameters: dose 100 mg/kg, route intravenous; settings: in vivo, 168 h
Mus musculus [10] = test: Toxicity in intracerebroventricularly dosed ICR mouse assessed as induction of convulsion after 2 hrs in presence of fenbufen; assay type: organism-based; settings: in vivo, icv_or_intrathecal
Mus musculus [11] = test: Toxicity in ICR mouse assessed as mortality administered as single dose at 200 mg/kg, iv after 7 days; assay type: organism-based; parameters: dose 200 mg/kg, route intravenous; settings: in vivo, 168 h
Mus musculus [12] = test: Toxicity in intracerebroventricularly dosed ICR mouse assessed as induction of convulsion after 2 hrs in absence of fenbufen; assay type: organism-based; settings: in vivo, icv_or_intrathecal
Mus musculus [13] = test: Phototoxicity in orally dosed ICR mouse assessed as skin erythema after 72 hrs; assay type: organism-based; settings: in vivo, po
[14] = Inhibition of Staphylococcus aureus MS5935 wild type topoisomerase 4-mediated decatenation activity
Staphylococcus aureus [15] = test: Antibacterial activity against quinoline-resistant Staphylococcus aureus MS5935 containing single grlA and single gyrA mutation after 18 hrs by agar dilution method; assay type: functional
Staphylococcus aureus [16] = test: Antibacterial activity against quinoline-resistant Staphylococcus aureus MS5935 containing double grlA and double gyrA mutation after 18 hrs by agar dilution method; assay type: functional
Staphylococcus aureus [17] = test: Antibacterial activity against quinoline-resistant Staphylococcus aureus MS5935 containing double grlA and single gyrA mutation after 18 hrs by agar dilution method; assay type: functional
DNA gyrase [18] = molecular target: T1, DNA gyrase (Staphylococcus aureus, UniProt P0A0K8+P20831); test: Inhibition of Staphylococcus aureus MS5935 wild type DNA gyrase-mediated supercoiling activity; assay type: protein-complex assay
T1 sequence (P0A0K8 whole entry): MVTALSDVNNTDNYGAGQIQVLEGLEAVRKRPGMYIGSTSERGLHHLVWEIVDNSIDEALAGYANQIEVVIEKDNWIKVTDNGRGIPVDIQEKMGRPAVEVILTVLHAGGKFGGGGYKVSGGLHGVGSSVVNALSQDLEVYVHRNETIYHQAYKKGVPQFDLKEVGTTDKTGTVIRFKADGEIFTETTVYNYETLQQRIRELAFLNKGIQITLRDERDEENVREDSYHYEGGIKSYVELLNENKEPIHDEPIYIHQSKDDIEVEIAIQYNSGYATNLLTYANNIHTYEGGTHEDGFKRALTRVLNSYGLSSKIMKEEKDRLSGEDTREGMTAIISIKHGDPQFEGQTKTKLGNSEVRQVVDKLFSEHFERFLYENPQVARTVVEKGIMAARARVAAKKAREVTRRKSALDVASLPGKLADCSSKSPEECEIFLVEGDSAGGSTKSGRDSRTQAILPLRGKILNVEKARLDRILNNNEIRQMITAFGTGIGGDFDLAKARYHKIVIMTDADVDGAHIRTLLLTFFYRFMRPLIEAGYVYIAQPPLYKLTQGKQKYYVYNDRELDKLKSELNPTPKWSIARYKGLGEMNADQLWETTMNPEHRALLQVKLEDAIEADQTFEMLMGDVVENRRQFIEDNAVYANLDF
T1 sequence (P20831 whole entry): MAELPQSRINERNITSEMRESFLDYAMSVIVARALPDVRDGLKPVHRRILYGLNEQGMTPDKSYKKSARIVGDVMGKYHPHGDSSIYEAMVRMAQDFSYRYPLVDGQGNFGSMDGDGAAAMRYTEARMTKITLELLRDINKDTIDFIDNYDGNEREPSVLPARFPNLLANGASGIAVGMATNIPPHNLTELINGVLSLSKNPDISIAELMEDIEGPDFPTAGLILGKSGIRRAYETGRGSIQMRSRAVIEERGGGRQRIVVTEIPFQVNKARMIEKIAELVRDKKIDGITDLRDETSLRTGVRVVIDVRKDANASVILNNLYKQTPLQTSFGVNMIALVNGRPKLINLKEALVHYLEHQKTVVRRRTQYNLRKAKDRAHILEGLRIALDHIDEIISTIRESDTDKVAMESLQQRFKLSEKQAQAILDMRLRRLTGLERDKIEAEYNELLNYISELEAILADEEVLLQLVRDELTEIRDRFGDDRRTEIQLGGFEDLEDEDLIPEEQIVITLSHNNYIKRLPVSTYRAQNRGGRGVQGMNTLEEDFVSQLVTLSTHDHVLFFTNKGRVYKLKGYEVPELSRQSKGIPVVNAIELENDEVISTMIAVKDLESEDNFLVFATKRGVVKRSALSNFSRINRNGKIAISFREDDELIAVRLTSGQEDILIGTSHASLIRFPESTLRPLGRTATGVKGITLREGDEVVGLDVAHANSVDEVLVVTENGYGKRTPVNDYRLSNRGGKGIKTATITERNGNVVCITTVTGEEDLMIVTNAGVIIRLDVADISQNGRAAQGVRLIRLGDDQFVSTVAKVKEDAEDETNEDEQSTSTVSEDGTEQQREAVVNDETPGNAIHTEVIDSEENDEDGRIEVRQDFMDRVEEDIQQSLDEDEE

DNA gyrase [19] = molecular target: T1, DNA gyrase; test: Inhibition of quinoline-resistant Staphylococcus aureus MS5935 DNA gyrase-mediated supercoiling activity; assay type: protein-complex assay
Streptococcus pneumoniae [20] = test: Antibacterial activity against Streptococcus pneumoniae type 3 infected in subcutaneously dosed ICR mouse administered 1 hr after bacterial challenge measured at 7 days post infection; assay type: functional; settings: sc
Staphylococcus aureus [21] = test: Antibacterial activity against quinoline-resistant Staphylococcus aureus MS5935 containing single grlA mutation after 18 hrs by agar dilution method; assay type: functional
Staphylococcus aureus [22] = test: Antibacterial activity against quinoline-resistant wild type Staphylococcus aureus MS5935 after 18 hrs by agar dilution method; assay type: functional
Streptococcus pneumoniae [23] = test: Antibacterial activity against Streptococcus pneumoniae type 3 infected in po dosed ICR mouse administered 1 hr after bacterial challenge measured at 7 days post infection; assay type: functional
Staphylococcus aureus [24] = test: Antibacterial activity against Staphylococcus aureus Smith infected in subcutaneously dosed ICR mouse administered 1 hr after bacterial challenge measured at 7 days post infection; assay type: functional; settings: sc
Staphylococcus aureus [25] = test: Antibacterial activity against Staphylococcus aureus Smith infected in po dosed ICR mouse administered 1 hr after bacterial challenge measured at 7 days post infection; assay type: functional
[26] = Inhibition of quinoline-resistant Staphylococcus aureus MS5935 topoisomerase 4-mediated decatenation activity

SMILES	MIC (Staphylococcus aureus [1]) [µg/mL]	MIC (Enterococcus faecalis [2]) [µg/mL]	MIC (Escherichia coli) [µg/mL]	MIC (Pseudomonas aeruginosa) [µg/mL]	MIC (Enterococcus faecalis [3]) [µg/mL]	MIC (Staphylococcus aureus [4]) [µg/mL]	MIC (Haemophilus influenzae) [µg/mL]	MIC (Enterococcus faecalis [5]) [µg/mL]	MIC (Streptococcus pneumoniae [6]) [µg/mL]	MIC (Enterococcus faecalis [7]) [µg/mL]	MIC (Klebsiella pneumoniae) [µg/mL]	MIC (Streptococcus pyogenes) [µg/mL]	MIC (Streptococcus pneumoniae [8]) [µg/mL]	Activity (Mus musculus [10]) [µg]	Activity (Mus musculus [11])	Activity (Mus musculus [12]) [µg]	other results
C[C@H]1COc2c(N3C[C@H](CNC4CC4)[C@@H](F)C3)c(F)cc3c(=O)c(C(=O)O)cn1c23	0.016 (≈ 0.0381 µM)	4 (≈ 9.54 µM)	0.016 (≈ 0.0381 µM)	4 (≈ 9.54 µM)	2 (≈ 4.77 µM)	16 (≈ 38.1 µM)	0.008 (≈ 0.0191 µM)	4 (≈ 9.54 µM)	2 (≈ 4.77 µM)	0.125 (≈ 0.298 µM)	0.125 (≈ 0.298 µM)	0.125 (≈ 0.298 µM)	0.063 (≈ 0.15 µM)				
C[C@H]1CN(c2c(F)cc3c(=O)c(C(=O)O)cn4c3c2OC[C@@H]4C)C[C@@H]1CNC1CC1	0.002 (≈ 0.00481 µM)	1 (≈ 2.41 µM)	0.016 (≈ 0.0385 µM)	4 (≈ 9.63 µM)	1 (≈ 2.41 µM)	2 (≈ 4.81 µM)	0.008 (≈ 0.0193 µM)	1 (≈ 2.41 µM)	0.5 (≈ 1.2 µM)	0.031 (≈ 0.0746 µM)	0.125 (≈ 0.301 µM)	0.016 (≈ 0.0385 µM)	0.016 (≈ 0.0385 µM)	> 40	Toxic	> 40	Activity (Mus musculus [9]): Non-toxic
O=C(O)c1cn2c3c(c(N4C[C@H](CNC5CC5)[C@@H](F)C4)c(F)cc3c1=O)OC[C@@H]2CF	0.016 (≈ 0.0366 µM)	4 (≈ 9.14 µM)	0.031 (≈ 0.0709 µM)	4 (≈ 9.14 µM)	2 (≈ 4.57 µM)	16 (≈ 36.6 µM)	0.008 (≈ 0.0183 µM)	4 (≈ 9.14 µM)	2 (≈ 4.57 µM)	0.125 (≈ 0.286 µM)	0.125 (≈ 0.286 µM)	0.125 (≈ 0.286 µM)	0.063 (≈ 0.144 µM)				
C[C@@H]1CN(c2c(F)cc3c(=O)c(C(=O)O)cn4c3c2OC[C@@H]4CF)C[C@@H]1CNC1CC1	0.008 (≈ 0.0185 µM)	1 (≈ 2.31 µM)	0.016 (≈ 0.0369 µM)	2 (≈ 4.61 µM)	1 (≈ 2.31 µM)	0.5 (≈ 1.15 µM)	0.004 (≈ 0.00923 µM)	1 (≈ 2.31 µM)	0.125 (≈ 0.288 µM)	0.063 (≈ 0.145 µM)	0.063 (≈ 0.145 µM)	0.031 (≈ 0.0715 µM)	0.016 (≈ 0.0369 µM)	10	Toxic	20	Activity (Mus musculus [13]): Non-toxic
O=C(O)c1cn(C2CC2)c2cc(N3CCNCC3)c(F)cc2c1=O [CIPROFLOXACIN]	0.25 (≈ 0.754 µM)	64 (≈ 193 µM)	≤ 0.001		64 (≈ 193 µM)	64 (≈ 193 µM)	0.008 (≈ 0.0241 µM)	64 (≈ 193 µM)	64 (≈ 193 µM)	0.5 (≈ 1.51 µM)	0.004 (≈ 0.0121 µM)	0.5 (≈ 1.51 µM)					
NC1CCN(c2c(F)cc3c(=O)c(C(=O)O)cn(C4CC4)c3c2Cl)C1 (stereo not given) [CLINAFLOXACIN]	0.016 (≈ 0.0437 µM)	8 (≈ 21.9 µM)	0.002 (≈ 0.00547 µM)	0.125 (≈ 0.342 µM)	2 (≈ 5.47 µM)	8 (≈ 21.9 µM)	≤ 0.001	4 (≈ 10.9 µM)	0.5 (≈ 1.37 µM)	0.063 (≈ 0.172 µM)	0.004 (≈ 0.0109 µM)	0.063 (≈ 0.172 µM)	0.031 (≈ 0.0847 µM)	5	Non-toxic	10	IC50 [14]: 1.89 µg/mL (≈ 5.17 µM); Activity (Mus musculus [9]): Non-toxic; MIC (Staphylococcus aureus [15]): 0.5 µg/mL (≈ 1.37 µM); Activity (Mus musculus [13]): Toxic; MIC (Staphylococcus aureus [16]): 8 µg/mL (≈ 21.9 µM); MIC (Staphylococcus aureus [17]): 2 µg/mL (≈ 5.47 µM); IC50 (DNA gyrase [18]): 3.14 µM; IC50 (DNA gyrase [19]): 44.3 µM; ED50 (Streptococcus pneumoniae [20]): 45 mg/kg; MIC (Staphylococcus aureus [21]): 0.063 µg/mL (≈ 0.172 µM); MIC (Staphylococcus aureus [22]): 0.016 µg/mL (≈ 0.0437 µM); ED50 (Streptococcus pneumoniae [23]): 15 mg/kg; ED50 (Staphylococcus aureus [24]): 0.35 mg/kg; ED50 (Staphylococcus aureus [25]): 2.1 mg/kg; IC50 [26]: 13.9 µg/mL (≈ 38 µM)
C[C@H]1COc2c(N3CCN(C)CC3)c(F)cc3c(=O)c(C(=O)O)cn1c23.C[C@H]1COc2c(N3CCN(C)CC3)c(F)cc3c(=O)c(C(=O)O)cn1c23.O [LEVOFLOXACIN]	0.125	64	≤ 0.001	0.5	32	> 128	0.008	32		1	0.016	0.5					IC50 [14]: 5.44 µg/mL; MIC (Staphylococcus aureus [15]): 8 µg/mL; MIC (Staphylococcus aureus [16]): > 128 µg/mL; MIC (Staphylococcus aureus [17]): 32 µg/mL; MIC (Staphylococcus aureus [21]): 0.5 µg/mL; MIC (Staphylococcus aureus [22]): 0.125 µg/mL; IC50 [26]: 319 µg/mL
